Patent US5424451A, “Process for preparing aminoalkylcarbamic esters of eseroline” (priority 1992, dated 1995)
Like-named read-outs stand apart in the source and are kept apart here.

Tests used:
[1] = target: T1, butyrylcholinesterase from human serum (Homo sapiens, UniProt P06276); assay: Inhibition of butyrylcholinesterase from human serum (Ellman colorimetric method); assay type: biochemical
T1 construct: purchased Sigma Chemical; host or cells: human serum

[2] = target: T2, acetylcholinesterase from human red blood cells (Homo sapiens, UniProt P22303); assay: Inhibition of acetylcholinesterase from human erythrocyte (Ellman colorimetric method); assay type: biochemical; details: for Activity against human red blood cells acetylcholinesterase (in words): Table 2 results
T2 construct: purchased Sigma Chemical; host or cells: human erythrocyte
T2 sequence (P22303 32-617 isoform P22303-2 limits assumed): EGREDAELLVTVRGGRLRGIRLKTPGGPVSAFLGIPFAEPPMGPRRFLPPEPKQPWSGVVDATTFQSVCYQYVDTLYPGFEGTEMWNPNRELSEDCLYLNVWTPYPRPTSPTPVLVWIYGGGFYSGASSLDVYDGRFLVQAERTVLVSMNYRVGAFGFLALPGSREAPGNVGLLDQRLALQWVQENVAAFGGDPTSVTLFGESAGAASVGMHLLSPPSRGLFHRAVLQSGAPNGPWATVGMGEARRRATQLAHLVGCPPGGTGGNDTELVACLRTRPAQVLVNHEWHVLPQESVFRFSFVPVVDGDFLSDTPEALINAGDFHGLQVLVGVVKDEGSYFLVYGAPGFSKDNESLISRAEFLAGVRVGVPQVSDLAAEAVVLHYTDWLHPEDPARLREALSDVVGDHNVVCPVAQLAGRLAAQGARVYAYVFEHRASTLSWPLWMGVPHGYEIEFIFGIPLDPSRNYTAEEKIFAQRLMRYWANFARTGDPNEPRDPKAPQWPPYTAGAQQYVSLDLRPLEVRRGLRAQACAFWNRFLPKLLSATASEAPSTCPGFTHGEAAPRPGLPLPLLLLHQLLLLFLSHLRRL

[3] = target: T3, acetylcholinesterase from electric eel (Electrophorus electricus, UniProt O42275); assay: biochemical
T3 construct: purchased Sigma Chemical; host or cells: electric eel
T3 sequence (O42275 24-633): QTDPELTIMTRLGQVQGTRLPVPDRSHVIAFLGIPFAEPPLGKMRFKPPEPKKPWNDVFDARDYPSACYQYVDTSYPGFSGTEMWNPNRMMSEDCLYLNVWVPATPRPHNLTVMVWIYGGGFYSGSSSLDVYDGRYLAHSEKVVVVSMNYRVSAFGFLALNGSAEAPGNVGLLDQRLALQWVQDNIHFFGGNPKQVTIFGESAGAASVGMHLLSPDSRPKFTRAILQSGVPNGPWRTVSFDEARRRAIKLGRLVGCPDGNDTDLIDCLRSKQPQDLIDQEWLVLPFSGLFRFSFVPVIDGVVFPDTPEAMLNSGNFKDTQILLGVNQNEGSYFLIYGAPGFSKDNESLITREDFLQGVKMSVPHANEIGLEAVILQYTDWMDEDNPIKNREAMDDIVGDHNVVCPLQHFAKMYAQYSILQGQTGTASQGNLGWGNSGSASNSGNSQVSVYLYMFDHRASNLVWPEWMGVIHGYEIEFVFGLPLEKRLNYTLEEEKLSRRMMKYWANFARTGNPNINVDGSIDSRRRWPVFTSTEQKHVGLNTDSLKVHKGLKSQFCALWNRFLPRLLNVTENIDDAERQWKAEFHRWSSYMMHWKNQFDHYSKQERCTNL

[4] = in vivo; details: rat, po
[5] = Cholinesterase Inhibition IC50, AChE hRBC, contact time 30'
[6] = Cholinesterase Inhibition IC50, AChE hRBC, contact time 60'
[7] = contact time 10', read-out: Cholinesterase Inhibition IC50, AChE hRBC
[8] = Cholinesterase Inhibition IC50, AChE hRBC, contact time 10'
[9] = Cholinesterase Inhibition IC50, AChE E.eel, contact time 10'
[10] = Cholinesterase Inhibition IC50, AChE E.eel, contact time 30'

T1 sequence (P06276 29-602): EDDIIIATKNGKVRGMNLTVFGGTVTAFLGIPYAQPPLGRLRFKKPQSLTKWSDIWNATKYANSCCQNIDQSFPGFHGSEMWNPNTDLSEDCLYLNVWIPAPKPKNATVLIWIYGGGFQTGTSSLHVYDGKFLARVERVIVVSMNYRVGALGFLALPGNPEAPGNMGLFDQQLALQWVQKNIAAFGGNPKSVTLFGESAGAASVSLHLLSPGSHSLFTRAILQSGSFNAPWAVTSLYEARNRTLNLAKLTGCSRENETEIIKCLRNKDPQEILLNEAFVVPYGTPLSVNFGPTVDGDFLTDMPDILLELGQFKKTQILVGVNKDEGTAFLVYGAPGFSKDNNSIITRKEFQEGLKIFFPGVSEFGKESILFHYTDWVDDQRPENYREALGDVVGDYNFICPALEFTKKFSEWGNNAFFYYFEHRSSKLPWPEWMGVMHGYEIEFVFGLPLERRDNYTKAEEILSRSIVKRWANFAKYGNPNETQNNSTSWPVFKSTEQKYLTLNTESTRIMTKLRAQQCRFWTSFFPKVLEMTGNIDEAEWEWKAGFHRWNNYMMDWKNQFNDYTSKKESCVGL

Row | Compound | IC50 [2, 8] [µM] | Activity against human red blood cells acetylcholinesterase (in words) [2] | also measured
1 | CN1CC[C@@]2(C)c3cc(OC(=O)NCCN4CCOCC4)ccc3N(C)[C@@H]12 [MF 214, N-morpholinylethylcarbamoyleseroline] |  |  | IC50 [1]: 4.1 µM; IC50 [2, 5]: 0.14 µM; IC50 [2, 6]: 0.11 µM; IC50 [2, 7]: 0.7 µM
2 | CN1CC[C@@]2(C)c3cc(OC(=O)NCCCN4CCOCC4)ccc3N(C)[C@@H]12 [MF 218, N-morpholinylpropylcarbamoyleseroline] |  |  | IC50 [2, 7]: 3.8 µM
3 | CN1CCN(CCCCCCCCCCCCNC(=O)Oc2ccc3c(c2)[C@]2(C)CCN(C)[C@@H]2N3C)CC1 [MF 229] | 0.06 | Particularly active | IC50 [3, 9]: 0.04 µM
4 | CN1CCN(CCCCCCCCNC(=O)Oc2ccc3c(c2)[C@]2(C)CCN(C)[C@@H]2N3C)CC1 [MF 230, N-(N-methylpiperazinyloctyl)carbamoyleseroline] | 0.03 | Particularly active | IC50 [2, 5]: 0.05 µM; IC50 [3, 9]: 0.2 µM; IC50 [3, 10]: 0.08 µM; LD50 [4]: 27.7 mg/kg
5 | CN1CC[C@@]2(C)c3cc(OC(=O)NCCCCCCCCCCN4CCOCC4)ccc3N(C)[C@@H]12 [MF 231] |  | Particularly active | IC50 [2, 7]: 0.04 µM; IC50 [3, 9]: 0.06 µM; LD50 [4]: 40 mg/kg
6 | CN1CC[C@@]2(C)c3cc(OC(=O)NCCCCCCCCCCCN4CCOCC4)ccc3N(C)[C@@H]12 [MF 232] |  |  | IC50 [2, 7]: 0.04 µM; IC50 [3, 9]: 0.07 µM
7 | CN1CC[C@@]2(C)c3cc(OC(=O)NCCCCCCCCCN4CCOCC4)ccc3N(C)[C@@H]12 [MF 233] |  | Particularly active | IC50 [2, 7]: 0.06 µM; IC50 ([3]; read-out: Cholinesterase Inhibition IC50, AChE E.eel, contact time 10'): 0.14 µM
8 | CCN(CC)CCCCCCCCNC(=O)Oc1ccc2c(c1)[C@]1(C)CCN(C)[C@@H]1N2C [MF 237] | 0.11 | Particularly active | IC50 [2, 5]: 0.07 µM; IC50 [2, 6]: 0.03 µM; IC50 [3, 9]: 0.34 µM; IC50 [3, 10]: 0.19 µM; IC50 ([3]; Cholinesterase Inhibition IC50, AChE E.eel, contact time 60'): 0.12 µM
9 | CN1CC[C@@]2(C)c3cc(OC(=O)NCCCCCCCCN4CCSCC4)ccc3N(C)[C@@H]12 [MF 239] | 0.05 | Particularly active | LD50 [4]: 23.8 mg/kg
10 | CC(=O)N1CCN(CCCCCCCCNC(=O)Oc2ccc3c(c2)[C@]2(C)CCN(C)[C@@H]2N3C)CC1 [MF 240] | 0.24 |  | 
11 | CN1CC[C@@]2(C)c3cc(OC(=O)NCCCCCCCCN4CCCCC4)ccc3N(C)[C@@H]12 [MF 241, N-piperidinyloctylcarbamoyleseroline] | 0.1 | Particularly active | 
12 | CN(CCCCCCCCN1CCOCC1)C(=O)Oc1ccc2c(c1)[C@]1(C)CCN(C)[C@@H]1N2C [MF 243, N-(morpholinyloctyl),N-methyl carbamoyl eseroline] | 7.4 |  | 
13 | CN1CCN(C(=O)CCCCCNC(=O)Oc2ccc3c(c2)[C@]2(C)CCN(C)[C@@H]2N3C)CC1 [MF 245] | 5.5 |  | 
14 | CC(=O)N1CCN(CCNC(=O)Oc2ccc3c(c2)[C@]2(C)CCN(C)[C@@H]2N3C)CC1 [MF 246] | 20 |  | 
15 | CCN(CC)CCCCCCCCCCNC(=O)Oc1ccc2c(c1)[C@]1(C)CCN(C)[C@@H]1N2C [MF 247] | 0.017 | Particularly active | 
16 | CN1CC[C@@]2(C)c3cc(OC(=O)NCCCCCCCCCCN4CCCCC4)ccc3N(C)[C@@H]12 [MF 248] | 0.019 | Particularly active | LD50 [4]: 15.3 mg/kg
17 | CN1CC[C@@]2(C)c3cc(OC(=O)NCCCCCCCCCCCCN4CCCCC4)ccc3N(C)[C@@H]12 [MF 249] | 0.05 | Particularly active | 
18 | CN1CC[C@@]2(C)c3cc(OC(=O)NCCCCCCCCN4CC=CC4)ccc3N(C)[C@@H]12 [MF 250] | 0.03 |  | 
19 | CN1CC[C@@]2(C)c3cc(OC(=O)NCCCCCCCCN4CCCC4)ccc3N(C)[C@@H]12 [MF 251, N-pyrrolidinyloctylcarbamoyleseroline] | 0.07 | Particularly active | 

Row | Compound | IC50 [2, 8] [µM] | Activity against human red blood cells acetylcholinesterase (in words) [2] | also measured
20 | CC(=O)N1CCN(CCCCCCCCCCNC(=O)Oc2ccc3c(c2)[C@]2(C)CCN(C)[C@@H]2N3C)CC1 [MF 252] | 0.027 | Particularly active | 
21 | CN1CC[C@@]2(C)c3cc(OC(=O)NCCCCCCCCCCN4CCCC4)ccc3N(C)[C@@H]12 [MF 253] | 0.03 | Particularly active | 
22 | CCN(CC)CCCCCCCCCCCCNC(=O)Oc1ccc2c(c1)[C@]1(C)CCN(C)[C@@H]1N2C [MF 254] | 0.05 | Particularly active | 
23 | CN1CCN(CCCCCCCCCCNC(=O)Oc2ccc3c(c2)[C@]2(C)CCN(C)[C@@H]2N3C)CC1 [MF 255] | 0.05 | Particularly active | 
24 | CCCN(CCC)CCCCCCCCNC(=O)Oc1ccc2c(c1)[C@]1(C)CCN(C)[C@@H]1N2C [MF 256] | 0.08 | Particularly active | LD50 [4]: 18.3 mg/kg
25 | CCCN(CCC)CCCCCCCCCCNC(=O)Oc1ccc2c(c1)[C@]1(C)CCN(C)[C@@H]1N2C [MF 257] | 0.03 | Particularly active | 
26 | CCCN(CCC)CCCCCCCCCCCCNC(=O)Oc1ccc2c(c1)[C@]1(C)CCN(C)[C@@H]1N2C [MF 258] | 1 |  | 
27 | CCCN1CCN(CCCCCCCCNC(=O)Oc2ccc3c(c2)[C@]2(C)CCN(C)[C@@H]2N3C)CC1 [MF 261] | 0.02 | Particularly active | 
28 | CCN1CCN(CCCCCCCCNC(=O)Oc2ccc3c(c2)[C@]2(C)CCN(C)[C@@H]2N3C)CC1 [MF 262] | 0.03 | Particularly active | 
29 | CN(CCCCCCCCNC(=O)Oc1ccc2c(c1)[C@]1(C)CCN(C)[C@@H]1N2C)c1ccccc1 [MF 263] | 0.05 | Particularly active | 
30 | CN1CC[C@@]2(C)c3cc(OC(=O)NCCCCCCCCN4CCC5(CC4)OCCO5)ccc3N(C)[C@@H]12 [MF 265] | 0.08 | Particularly active | 
31 | CN1CC[C@@]2(C)c3cc(OC(=O)NCCCCCCCCN4CCN(Cc5ccccc5)CC4)ccc3N(C)[C@@H]12 [MF 266] | 0.07 | Particularly active | 
32 | C[C@@H]1CN(CCCCCCCCNC(=O)Oc2ccc3c(c2)[C@]2(C)CCN(C)[C@@H]2N3C)C[C@H](C)O1 [MF 268, 8-(cis-2,6-dimethylmorpholinyl)octylcarbamoyl eseroline] | 0.07 | Particularly active | IC50 [1]: 0.18 µM; LD50 [4]: 56 mg/kg
33 | CN1CC[C@@]2(C)c3cc(OC(=O)NCCCCCCCC(=O)N4CCOCC4)ccc3N(C)[C@@H]12 [MF 269] | 0.12 |  | 
34 | CC(C)CN1CCN(CCCCCCCCNC(=O)Oc2ccc3c(c2)[C@]2(C)CCN(C)[C@@H]2N3C)CC1 [MF 270] | 0.06 |  | 
35 | COCCN(CCCCCCCCNC(=O)Oc1ccc2c(c1)[C@]1(C)CCN(C)[C@@H]1N2C)CCOC [MF 271] | 0.05 | Particularly active | 
36 | CCCCN1CCN(CCCCCCCCNC(=O)Oc2ccc3c(c2)[C@]2(C)CCN(C)[C@@H]2N3C)CC1 [MF 273] | 0.03 | Particularly active | 
37 | CC(=O)N1CCN(CCCCCCCCCCCCNC(=O)Oc2ccc3c(c2)[C@]2(C)CCN(C)[C@@H]2N3C)CC1 [MF 275] | 0.05 |  | 
38 | C[C@@H]1CN(CCCCCCCCNC(=O)Oc2ccc3c(c2)[C@]2(C)CCN(C)[C@@H]2N3C)C[C@@H](C)O1 [MF 276, 8-(trans-2,6-dimethyl)morpholinyloctylcarbamoyl eseroline] |  | Particularly active | IC50 ([1]; read-out: Cholinesterase Inhibition IC50, BuChE hserum, contact time 10'): 0.25 µM; IC50 ([2]; read-out: Cholinesterase Inhibition IC50, AChE hRBC, contact time 10'): 0.07 µM
